Results: the supplement of paper PMC10307832

Legend:
Experiment in all cases: relative viability (nuclei count vs DMSO), 5 days (fraction); higher = more cells survive
[1] = compound: C1COCCN1C2=NC(=NC3=C2OC4=C3C=CC=N4)C5=CC(=CC=C5)NC(=O)C6=CN=C(C=C6)N + NC(=O)Nc1cc(-c2cccc(F)c2)sc1C(=O)N[C@H]1CCCNC1 [AZD7762] (partner 0.2 µM)
Outline: (§1)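 Lung cancer cell lines were pin-tool dosed in 1536-well plates on the day after seeding, with either a lone drug or a fixed anchor-drug dose plus five library-drug doses (not always all listed) in √10 steps. Nuclei were counted on 4× images after 5 days. Relative viability is the ratio of treated-well to vehicle-well nuclei counts, with each value a median of duplicate plates.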

[2] = compound: C1COCCN1C2=NC(=NC3=C2OC4=C3C=CC=N4)C5=CC(=CC=C5)NC(=O)C6=CN=C(C=C6)N + O=C(CCCCCCC(=O)Nc1ccccc1)NO [Vorinostat] (partner 1 µM)
Outline: as §1

[3] = compound: CN1CCC(CNc2ccc3ncc(-c4cccc(OC(F)(F)F)c4)n3n2)CC1 [SGI-1776] + O=C(CCCCCCC(=O)Nc1ccccc1)NO [Vorinostat] (partner 1 µM)
Outline: as §1

[4] = compound: C1COCCN1C2=NC(=NC3=C2OC4=C3C=CC=N4)C5=CC(=CC=C5)NC(=O)C6=CN=C(C=C6)N + O=C(c1cc(Cc2n[nH]c(=O)c3ccccc23)ccc1F)N1CCN(C(=O)C2CC2)CC1 [Olaparib] (partner 8 µM)
Outline: as §1

| Cell Line | relative viability ([1]; first compound 0.02 µM) | relative viability ([1]; first compound 0.06325 µM) | relative viability ([1]; first compound 0.2 µM) | relative viability ([1]; first compound 0.6325 µM) | relative viability ([1]; first compound 2 µM) | relative viability ([2]; first compound 0.02 µM) | relative viability ([2]; first compound 0.06325 µM) | relative viability ([2]; first compound 0.2 µM) | relative viability ([2]; first compound 0.6325 µM) | relative viability ([2]; first compound 2 µM) | relative viability ([3]; first compound 0.08 µM) | relative viability ([3]; first compound 0.8 µM) | relative viability ([3]; first compound 2.53 µM) | relative viability ([3]; first compound 8 µM) | relative viability ([4]; first compound 0.02 µM) | relative viability ([4]; first compound 0.06325 µM) | relative viability ([4]; first compound 0.2 µM) | relative viability ([4]; first compound 0.6325 µM) | relative viability ([4]; first compound 2 µM) |
| --- | --- | --- | --- | --- | --- | --- | --- | --- | --- | --- | --- | --- | --- | --- | --- | --- | --- | --- | --- |
| 201T | 0.655 | 0.626 | 0.603 | 0.509 | 0.534 | 0.964 | 1.03 | 0.931 | 0.94 | 0.769 | 0.977 | 1.01 | 0.98 | 0.946 | 0.854 | 0.879 | 0.837 | 0.923 | 0.458 |
| NCI-H1755 | 0.45 | 0.4 | 0.397 | 0.414 | 0.348 | 0.7 | 0.868 | 0.698 | 0.635 | 0.562 | 0.809 | 0.87 | 0.733 | 0.6 | 0.875 | 0.922 | 0.92 | 0.702 | 0.594 |
| NCI-H596 | 1.15 | 1.06 | 0.97 | 1.06 | 0.929 | 0.618 | 0.551 | 0.642 | 0.489 | 0.465 | 0.583 | 0.75 | 0.595 | 0.485 | 0.589 | 0.668 | 0.601 | 0.747 | 0.621 |
| NCI-H1651 | 0.507 | 0.563 | 0.476 | 0.461 | 0.36 | 0.382 | 0.595 | 0.563 | 0.537 | 0.529 | 0.605 | 0.648 | 0.563 | 0.416 | 0.177 | 0.18 | 0.195 | 0.171 | 0.161 |
| NCI-H1437 | 1.1 | 1.07 | 1.12 | 1.13 | 0.91 | 0.82 | 0.919 | 0.818 | 0.816 | 0.432 | 0.84 | 0.857 | 0.798 | 0.702 | 0.645 | 0.682 | 0.613 | 0.681 | 0.239 |
| NCI-H1975 | 0.72 | 0.67 | 0.608 | 0.557 | 0.51 | 0.675 | 0.689 | 0.631 | 0.624 | 0.389 | 0.745 | 0.725 | 0.683 | 0.589 | 0.772 | 0.865 | 1 | 0.86 | 0.381 |
| BEN | 0.726 | 0.636 | 0.66 | 0.621 | 0.657 | 0.545 | 0.556 | 0.589 | 0.619 | 0.448 | 0.643 | 0.618 | 0.584 | 0.543 | 0.935 | 1.17 | 1.23 | 1.09 | 0.819 |
| NCI-H322M | 0.543 | 0.49 | 0.575 | 0.56 | 0.516 | 0.823 | 0.85 | 0.851 | 0.904 | 0.764 | 0.882 | 0.926 | 0.846 | 0.707 | 0.793 | 0.77 | 0.685 | 0.943 | 0.586 |
| HOP-62 | 0.732 | 0.494 | 0.434 | 0.633 | 0.291 | 0.753 | 0.768 | 0.674 | 0.58 | 0.373 | 0.765 | 0.67 | 0.648 | 0.544 | 0.632 | 0.5 | 0.447 | 0.7 | 0.255 |
